In patent US6342501B1, “Pyrrolo[2,3-d] pyrimidines as antiviral agents” (The Regents of the University of Michigan, priority 1994, dated 2002):
Where two headings read alike, the source gives them in different places.

Assays:
[1] = test system: HSV-1; settings: prior studies; mechanism other than inhibition of DNA synthesis, early in replication cycle; cited from earlier work
[2] = test system: HCMV; settings: prior studies; mechanism other than inhibition of DNA synthesis, early in replication cycle; cited from earlier work
[3] = test system: human foreskin fibroblasts (HFF cells); test: Cytotoxicity in stationary HFF cells (microscopic inspection of plaque assay cells); type: cell-based; settings: read-out: HFF
Protocol: (§1) Two different assays were used to explore cytotoxicity of selected compounds: (i) Cytotoxicity produced in stationary HFF cells was determined by microscopic inspection of cells used in plaque assays which were not affected by the virus [Turk, S. R., et al, Antimicrob.
(§2) Dose-response relationships were constructed by linearly regressing the percent inhibition of parameters derived in the preceding sections against logarithm 10 drug concentrations. […] Samples containing positive controls (acyclovir for HSV-1 and ganciclovir for HCMV) were used in all assays.

[4] = test system: human cytomegalovirus (HCMV); test: microbe, parasite or virus in culture; type: cell-based, Towne strain; settings: for IC50: Human betaherpesvirus 5, HFF, read-out: HCMV; for antiviral activity against HCMV (in words): comment on Table 1 data
Protocol: (§3) The routine growth and passage of KB and BSC-1 cells was performed in monolayer cultures using minimal essential medium (MEM) with either Hanks salts [MEM(H)] or Earle salts [MEM(E)] supplemented with 10% calf serum. The sodium bicarbonate concentration was varied to meet the buffering capacity required. Cultures of diploid human foreskin fibroblast (HFF) or MRC-5 cells were grown in medium consisting of MEM(E) with 10% fetal bovine serum. Cells were passaged at 1:2 to 1:10 dilutions according to conventional procedures by using 0.05% trypsin plus 0.02% EDTA in a HEPES buffered salt solution (HBS) [Shipman, C., Jr., Proc. Soc. […] HFF and MRC-5 cells were passaged only at 1:2 dilutions. The Towne strain, plaque-purified isolate Po, of HCMV was kindly provided by Dr. Mark Stinski, University of Iowa. The KOS strain of HSV-1 was used in most experiments and was provided by Dr. Sandra K. Weller, University of Conn.
Stock HCMV was prepared by infecting HFF cells at a multiplicity of infection (m.o.i.) of <0.01 plaque-forming units (p.f.u.) per cell. Cell growth medium was changed every four days until cytopathology was evident in all cells (approximately 21 days). Supernatant fluids were retained as the virus stock.
Virus titers were determined using monolayer cultures of HFF cells for HCMV and monolayer cultures of BSC-1 cells for HSV-1 as described earlier [Prichard, M. N., et al., J. Virol. […] Briefly, HFF or BSC-1 cells were planted as described above in 96-well cluster dishes and incubated overnight at 37. degree. C. in a humidified 3% C02 -97% air atmosphere. The next day cultures were inoculated with HCMV or HSV-1 and serially diluted 1:3 across the remaining eleven columns of the 96-well plate. Cultures were incubated at 37. degree. C. for 2 hr to permit virus adsorption and then virus inoculum was replaced with 0.2 ml of fresh medium. Cultures were incubated for seven days for HCMV, two or three days for HSV-1, the medium was removed, and the cell sheets were stained with 0.1% crystal violet in 20% methanol.
HFF cells in 24-well cluster dishes were infected with approximately 100 p.f.u. of HCMV per cm^2 cell sheet using the procedures detailed above. Following virus adsorption, compounds dissolved in growth medium were added to duplicate wells in four to eight selected concentrations. After incubation at 37° C. for 7 to 10 days, cell sheets were fixed, stained with crystal violet and microscopic plaques enumerated as described above.
After virus adsorption, inoculum was replaced with 0.2 mL of fresh medium containing test compounds. The first row of 12 wells was left undisturbed and served as virus controls. Each well in the second row received an additional 0.1 mL of medium with test compound at three times the desired final concentration. The contents of the 12 wells were mixed by repeated pipetting and then serially diluted 1:3 along the remaining wells. In this manner, six compounds could be tested in duplicate on a single plate with concentrations from […]. Plates were incubated at 37° C. for seven days, subjected to one cycle of freezing and thawing; aliquots from each of the eight wells of a given column were transferred to the first column of a fresh 96-well monolayer culture of HFF cells. Contents were mixed and serially diluted 1:3 across the remaining eleven columns of the secondary plate. Each column of the original primary plate was diluted across a separate plate in this manner. Cultures were incubated, plaques were enumerated, and titers calculated as described above.
as §2

[5] = test system: KB cells; test: Cytotoxicity: KB cell growth (crystal violet staining); type: cell-based; settings: Homo sapiens, read-out: KBgrv
Protocol: as §1
Briefly, 96-well cluster dishes were planted with KB cells at 3000-5000 cells per well. After overnight incubation at 37° C., test compound was added in quadruplicate at six to eight concentrations. Plates were incubated at 37° C for 48 hours in a CO2 incubator, rinsed, fixed with 95% ethanol, and stained with 0.1% crystal violet. Acidified ethanol was added and plates read at 570 nm in a spectrophotometer designed to read 96-well ELISA assay plates.
as §2

[6] = test system: herpes simplex virus type 1 (HSV-1); test: HSV-1 ELISA in BSC-1 cells; type: cell-based, KOS strain; settings: read-out: HSV-1
Protocol: as §3
High titer HSV-1 stocks were prepared by infecting BSC cells at an m.o.i. of <0.1 as detailed previously [Turk, S. R., et al., Antimicrob.
Ninety-six-well cluster dishes were planted with 10,000 BSC-1 cells per well in 200 μL per well of MEM(E) plus 10% calf serum. After overnight incubation at 37° C., selected drug concentrations in quadruplicate and HSV-1 at a concentration of 100 p.f.u./well were added. Following a 3-day incubation at 37° C., medium was removed, plates were blocked, rinsed, and horse radish peroxidase conjugated rabbit anti-HSV-1 antibody was added. Following removal of the antibody containing solution, plates were rinsed, and then developed by adding 150 μL per well of a solution of tetramethylbenzidine as substrate. The reaction was stopped with H2SO4 and absorbance was read at 450 and 570 nm. Drug effects were calculated as a percentage of the reduction in absorbance in the presence of each drug concentration compared to absorbance obtained with virus in the absence of drug.
as §2

[7] = Table 1, cytotoxicity, stationary HFF cells, visual
[8] = Table 1, cytotoxicity, KB cell growth, 48 hours
[9] = Human alphaherpesvirus 1, 72 h, Table 1, fifty-percent inhibitory concentration, ELISA, BSC-1 cells, 3-day incubation
[10] = Human alphaherpesvirus 1, BSC-1, 72 h

Compound	IC50 [3, 7] [µM]	IC50 [4] [µM]	IC50 [5, 8] [µM]	IC50 [6, 9] [µM]	IC50 ([3]; HFF) [µM]	IC50 ([5]; KB, 48 h) [µM]	IC50 [6, 10] [µM]	other results
N#Cn1c(Br)c(CCc2ccc(Cl)cc2)c2ncnc(N)c21 [Compound 6f, 4-Amino-6-Bromo-5-cyano-7-(4-chlorophenethyl)pyrrolo[2,3]pyrimidine]	–	–	–	–	–	–	–	melting point: 280 °C (dec.)
COCCOCn1cc(C(N)=S)c2c(N)ncnc21 [compound 5b, 4-amino-7-[(2-methoxyethoxy)methyl]pyrrolo[2,3-d]pyrimidine-5-thiocarboxamide]	–	–	–	–	–	–	–	inhibition of HSV-1 viral replication (in words) [1]: inhibited; inhibition of HCMV viral replication (in words) [2]: inhibited
N#Cc1c(Br)n(Cc2ccc(F)cc2)c2ncnc(N)c12 [Compound 1353, 4-amino-6-bromo-7-(4-flurobenzyl)-pyrrolo[2,3-d]pyrimidine-5-carbonitrile]	116	1.4	> 100	60	–	–	–	–
N#Cc1c(Br)n(Cc2ccc(Cl)c(Cl)c2)c2ncnc(N)c12 [Compound 1462, 4-amino-6-bromo-7-(3,4-dichlorobenzyl)-pyrrolo[2,3-d]pyrimidine-5-carbonitrile]	> 100	> 100	> 100	> 100	–	–	–	–
NC(=O)c1cn(Cc2ccccc2)c2ncnc(N)c12 [Compound 659, 4-amino-7-benzyl-pyrrolo[2,3-d]pyrimidine-5-carboxamide]	–	171	–	–	118	75	32.6	–
Cc1ccccc1Cn1cc(C(N)=O)c2c(N)ncnc21 [Compound 636, 4-amino-7-(2-methylbenzyl)-pyrrolo[2,3-d]pyrimidine-5-carboxamide]	–	14.5	–	–	100	≥ 222	> 100	–
CC(C)(C)c1ccc(Cn2cc(C(N)=O)c3c(N)ncnc32)cc1 [Compound 845, 4-amino-7-(4-t-butylbenzyl)-pyrrolo[2,3-d]pyrimidine-5-carboxamide]	–	28	–	–	100	1	50	–
CC(c1ccccc1)n1c(Br)c(C#N)c2c(N)ncnc21 (stereo not shown) [Compound 1363, 4-amino-6-bromo-7-((2-phenyl)eth-2-yl)-pyrrolo[2,3-d]pyrimidine-5-carbonitrile]	> 100	2.7	50	90	–	–	–	antiviral activity against HCMV (in words) [4]: good to excellent antiviral activity
N#Cc1cn(Cc2ccc([N+](=O)[O-])cc2)c2ncnc(N)c12 [Compound 1360, 4-amino-7-(4-nitrobenzyl)-pyrrolo[2,3-d]pyrimidine-5-carbonitrile]	> 10	1.6	> 100	> 100	–	–	–	antiviral activity against HCMV (in words) [4]: good to excellent antiviral activity
N#Cc1c(Br)n(Cc2ccc(Br)cc2)c2ncnc(N)c12 [Compound 1373, 4-amino-6-bromo-7-(4-bromobenzyl)-pyrrolo[2,3-d]pyrimidine-5-carbonitrile]	10.5	10.5	> 100	> 100	–	–	–	–
Cc1cccc(Cn2cc(C(N)=O)c3c(N)ncnc32)c1 [Compound 826, 4-amino-7-(3-methylbenzyl)-pyrrolo[2,3-d]pyrimidine-5-carboxamide]	–	≥ 222	–	–	≥ 222	≥ 222	> 100	–
CC(c1ccccc1)n1cc(C(N)=O)c2c(N)ncnc21 (stereo not shown) [Compound 1428, 4-amino-7-((2-phenyl)-eth-2-yl)-pyrrolo[2,3-d]pyrimidine-5-carboxamide]	–	38	–	–	45	20	50	antiviral activity against HCMV (in words) [4]: good to excellent antiviral activity
